Tested on: Phosphorylation of STAT6 in human A549 cells
Experiment: Phosphorylated STAT6 (pSTAT6) flow cytometry assay in human A549 cells
Assay type: cell-based
Settings: read-out: STAT6 IL4 pSTAT6 assay in A549 cells: Average IC50
Text: Example 3. Phosphorylated STAT6 (pSTAT6) Flow Cytometry Assay in Human A549 Cells
Phosphorylation of STAT6 in human A549 cells was quantitatively measured using flow cytometry technology.

Row | IC50 [nM] | SMILES
1 | < 100 | COc1ccccc1-c1cc(C2=CCCN(C(=O)CCn3ccnn3)C2)c(F)c2[nH]c(C(=O)N3CC=C(C4CC4)CC3)cc12 [Example I-511]
2 | < 100 | C=C(C)c1cc(C2=CCCN(C(=O)CCn3ccnn3)C2)c(F)c2[nH]c(C(=O)N3CCN(c4ncc(F)cc4OC)CC3)cc12 [Example I-675]
3 | < 100 | COc1ccccc1-c1cc(C2=CCCN(C(=O)CCn3ccnn3)C2)c(F)c2[nH]c(C(=O)N3CCN(c4cc(OC)c5c(c4)nnn5C)CC3)cc12 [Example I-962]
4 | < 100 | COc1cc(F)c(F)cc1-c1cc(C2=CCCN(C(=O)CCn3ccnn3)C2)c(F)c2[nH]c(C(=O)N3CCN(c4ncccc4OC4CC4)CC3)cc12 [Example I-596]
5 | < 100 | COc1cccnc1N1CCN(C(=O)c2cc3c(N4CCCOCC4)cc(C4=CCCN(C(=O)CCn5ccnn5)C4)c(F)c3[nH]2)CC1 [Example I-592]
6 | < 100 | Cc1[nH]nc2ccc(-c3cc(C4=CCCN(C(=O)CCn5ccnn5)C4)cc4cc(C(=O)N(C)C)oc34)cc12 [Example I-1075]
7 | < 100 | CCc1ccncc1-c1cc(C2=CCCN(C(=O)CCn3ccnn3)C2)c(F)c2[nH]c(C(=O)N3CCN(c4ncccc4OC)CC3)cc12 [Example I-561]
8 | < 100 | COc1ccccc1-c1cc(C2=CCCN(C(=O)CCn3ccnn3)C2)c(F)c2[nH]c(C(=O)N3CCN(c4cc(=O)[nH]cc4F)CC3)cc12 [Example I-779]
9 | < 100 | COc1cccnc1N1CCN(C(=O)c2cc3c(-c4cc(C#N)ccn4)cc(C4=CCCN(C(=O)CCn5ccnn5)C4)c(F)c3[nH]2)CC1 [Example I-581]
10 | 100 to 1000 | CC(=O)N1CCC=C(c2cc(-c3cc(C#N)ccc3C)c3cc(C(=O)N(C)C)[nH]c3c2F)C1 [Example I-884]
11 | < 100 | CCc1cc(C)ncc1-c1cc(C2=CCCN(C(=O)CCn3ccnn3)C2)c(F)c2[nH]c(C(=O)N3Cc4cnn(CC)c4C3)cc12 [Example I-529]
12 | < 100 | COc1ccccc1-c1cc(C2=CCCN(C(=O)CCn3ccnn3)C2)c(F)c2[nH]c(C(=O)N3CCN(CC4(C)COC4)CC3)cc12 [Example I-1183]
13 | < 100 | COc1cccnc1N1CCN(C(=O)c2cc3c(C4CCCCC4)cc(C4=CCCN(C(=O)CCn5ccnn5)C4)c(F)c3[nH]2)CC1 [Example I-579]
14 | 10000 to 100000 | CCc1ccncc1-c1cc(C2=CCCN(C(=O)CCn3ccnn3)C2)c(F)c2[nH]c(C(=O)N3Cc4cnn(C)c4C3)cc12 [Example I-704]
15 | < 100 | COc1ccccc1-c1cc(C2=CCCN(C(=O)CCn3ccnn3)C2)c(F)c2[nH]c(C(=O)N3CCN(C4CC5CCC4C5)CC3)cc12 (centres unmarked) [Example I-1181]
16 | > 100000 | CCc1ccncc1-c1cc(C2=CCC[C@@H](C(=O)O)C2)c(F)c2[nH]c(C(=O)N3CCN(c4ncc(F)cc4OC)CC3)cc12 (single isomer, unassigned) [Example I-810]
17 | < 100 | COc1cncc(C)c1-c1cc(C2=CCCN(C(=O)CCn3ccnn3)C2)cc2cc(C(=O)N(C)C)oc12 [Example I-1090]
18 | 100 to 1000 | COC(=O)CCC#Cc1cccc2c1CC(C(=O)N1CCC=C(c3ccc4oc(C(=O)N(C)C)cc4c3)C1)N(C=O)C2 (centres unmarked) [Example I-802, Methyl 5-(3-(5-(2-(dimethylcarbamoyl)benzofuran-5-yl)-1,2,3,6-tetrahydropyridine-1-carbonyl)-2-formyl-1,2,3,4-tetrahydroisoquinolin-5-yl)pent-4-ynoate]
19 | < 100 | CCc1cc(C)ncc1-c1cc(C2=CCCN(C(=O)CCn3ccnn3)C2)c(F)c2[nH]c(C(=O)N3CCN(c4nccnc4OC)CC3)cc12 [Example I-519]

Row | IC50 [nM] | SMILES
20 | < 100 | COc1cnc(N2CCN(C(=O)c3cc4c(-c5ccncc5OC)cc(C5=CCCN(C(=O)CCn6ccnn6)C5)c(F)c4[nH]3)CC2)c(OC)c1 [Example I-436]
21 | 100 to 1000 | CN(C)C(=O)c1cc2ccc([C@H]3CCCN(C(=O)CCn4ccnn4)C3)cc2[nH]1 [Example I-1189]
22 | 100 to 1000 | COc1ccccc1-c1cc(C2=CCCN(C(=O)CCn3ccnn3)C2)c(F)c2[nH]c(C(=O)N3CCN(c4cc5cnn(C)c5cc4C)CC3)cc12 [Example I-925]
23 | < 100 | CCC1CN(C)CCC1c1cc(C2=CCCN(C(=O)CCn3ccnn3)C2)c(F)c2[nH]c(C(=O)N3CCN(c4ncc(F)cc4OC)CC3)cc12 (centres unmarked) [Example I-781]
24 | < 100 | COc1cc(F)cnc1N1CCN(C(=O)c2cc3c(-c4cnc5c(C)cccc5c4)cc(C4=CCCN(C(=O)CCn5ccnn5)C4)c(F)c3[nH]2)CC1 [Example I-672]
25 | < 100 | COc1cnccc1-c1cc(C2=CCCN(C(=O)CCn3ccnn3)C2)c(F)c2[nH]c(C(=O)N3CCN(c4ncc(Cl)cc4OC)CC3)cc12 [Example I-457]
26 | < 100 | CCc1nc(C)ccc1-c1cc(C(=O)N2CCN(c3ncc(F)cc3OC)CC2)cc2cc(C3=CCCN(C(=O)C(C)C(=O)O)C3)n(CC3CC3)c12 (centres unmarked) [Example I-539]
27 | < 100 | COc1cc(C#N)ccc1-c1cc(C2=CCCN(C(=O)CCn3ccnn3)C2)c(F)c2[nH]c(C(=O)N3CCN(c4ncccc4OC)CC3)cc12 [Example I-576]
28 | < 100 | COc1cccnc1C1=CCN(C(=O)c2cc3c(-c4cnc5ccccc5c4OC)cc(C4=CCCN(C(=O)CCn5ccnn5)C4)c(F)c3[nH]2)CC1 [Example I-451]
29 | < 100 | COc1cccnc1N1CCN(C(=O)c2cc3ccc(C4=CCCN(C(=O)CCn5ccnn5)C4)c(F)c3[nH]2)CC1 [Example I-338]
30 | < 100 | COc1cccc(N2CCN(C(=O)c3cc4c(-c5ccccc5OC)cc(C5=CCCN(C(=O)CCn6ccnn6)C5)c(F)c4[nH]3)CC2)n1 [Example I-359]
31 | 100 to 1000 | COc1nc(N2CCN(C(=O)c3cc4c(-c5cnc6ccccc6c5OC)cc(C5=CCCN(C(=O)CCn6ccnn6)C5)c(F)c4[nH]3)CC2)ccc1F [Example I-469]
32 | < 100 | COc1cc(F)cnc1N1CCN(C(=O)c2cc3c(C4=COCCC4)cc(C4=CCCN(C(=O)CCn5ccnn5)C4)c(F)c3[nH]2)CC1 [Example I-1155]
33 | > 100000 | CCc1nccn1-c1cc(C2=CCCN(C(=O)CCn3ccnn3)C2)c(F)c2[nH]c(C(=O)N3CCN(c4ncccc4OC)CC3)cc12 [Example I-692]
34 | 10000 to 100000 | COc1cc(F)cnc1N1CCN(C(=O)c2cc3c(-c4ccncc4C(C)C)cc(C4=CCCN(C(=O)CCn5ccnn5)C4)c(F)c3[nH]2)CC1 [Example I-703]
35 | 100 to 1000 | CCOc1cc(-c2cc(C3=CCCN(C(=O)CCn4ccnn4)C3)c(F)c3[nH]c(C(=O)N4CCN(c5ncc(F)cc5OC)CC4)cc23)cc(F)c1F [Example I-642]
36 | < 100 | COc1ccccc1-c1cc(C2=CCCN(C(=O)CCn3ccnn3)C2)c(F)c2[nH]c(C(=O)N3CCN(c4[nH]ncc4OC)CC3)cc12 [Example I-508]
37 | < 100 | COc1ccccc1N1CCN(C(=O)c2cc3c(-c4cc(F)cc(F)c4OC)cc(C4=CCCN(C(=O)CCn5ccnn5)C4)c(F)c3[nH]2)CC1 [Example I-601]
38 | 100 to 1000 | COc1cnccc1-c1cc(C2=CCCN(C(C)=O)C2)c(F)c2sc(C(=O)N(C)C)cc12 [Example I-554]

Row | IC50 [nM] | SMILES
39 | < 100 | Cc1c[nH]c2ncc(-c3cc(C4=CCCN(C(=O)CCn5ccnn5)C4)c(F)c4cc(C(=O)N(C)C)oc34)cc12 [Example I-1100]
40 | < 100 | CN(C)C(=O)c1cc2cc(C3=CCCN(C(=O)CCn4ccnn4)C3)cc(-c3cc(C(F)(F)F)nn3C)c2o1 [Example I-855]
41 | < 100 | CCc1cc(C)ncc1-c1cc(C2=CCCN(C(=O)CCn3cccn3)C2)c(F)c2[nH]c(C(=O)N3CCN(c4cc(C)ccc4OC)CC3)cc12 [Example I-515]
42 | < 100 | COc1cc(F)cnc1N1CCN(C(=O)c2cc3c(C(F)F)cc(C4=CCCN(C(=O)CCn5ccnn5)C4)c(F)c3[nH]2)CC1 [Example I-532]
43 | < 100 | COc1ccccc1-c1cc(C2=CCCN(C(=O)CCn3ccnn3)C2)c(F)c2[nH]c(C(=O)N3CCN(c4ccc(F)c(F)c4F)CC3)cc12 [Example I-769]
44 | < 100 | COc1ccccc1-c1cc(C2=CCCN(C(=O)CCn3ccnn3)C2)c(F)c2[nH]c(C(=O)N3CCN(c4ccc(=O)[nH]c4C)CC3)cc12 [Example I-1022]
45 | 1000 to 10000 | CN(C)C(=O)c1cc2cc(C3=CCCN(C(=O)C(Cn4ccnn4)c4cccc(CO)c4)C3)ccc2o1 (centres unmarked) [Example I-832]
46 | < 100 | COc1cc(F)cnc1N1CCN(C(=O)c2cc3c(-c4cccc(C5(C#N)CC5)c4)cc(C4=CCCN(C(=O)CCn5ccnn5)C4)c(F)c3[nH]2)CC1 [Example I-649]
47 | < 100 | CCN1CCCCC1c1cc(C2=CCCN(C(=O)CCn3ccnn3)C2)c(F)c2[nH]c(C(=O)N3CCN(c4ncc(F)cc4OC)CC3)cc12 (centres unmarked) [Example I-784]
48 | < 100 | Cc1ccc(Cl)c(-c2cc(C3=CCCN(C(=O)CCn4ccnn4)C3)cc3[nH]c(C(=O)N(C)C)cc23)c1 [Example I-1061]
49 | 100 to 1000 | COc1ccccc1-c1cc(C2=CCCN(C(=O)CCn3ccnn3)C2)c(F)c2[nH]c(C(=O)N3CCN(c4nc5ccccc5c5ccccc45)CC3)cc12 [Example I-916]
50 | < 100 | CCC1=C(c2cc(C3=CCCN(C(=O)CCn4ccnn4)C3)c(F)c3[nH]c(C(=O)N4CCN(c5ncc(F)cc5OC)CC4)cc23)CN(C)C1 [Example I-782]
51 | < 100 | COc1ccccc1-c1cc(C2=CCCN(C(=O)CCn3ccnn3)C2)c(F)c2[nH]c(C(=O)N3CCN(c4ncc(N(C)C)cc4OC)CC3)cc12 [Example I-416]
52 | < 100 | COc1ccccc1-c1cc(C2=CCCN(C(=O)CCn3ccnn3)C2)c(F)c2[nH]c(C(=O)N3CCN(c4cc(C#N)cc5[nH]ccc45)CC3)cc12 [Example I-771]
53 | < 100 | COc1cccc(/C=C/c2cc(C3=CCCN(C(=O)CCn4ccnn4)C3)c(F)c3[nH]c(C(=O)N4CCN(c5ncc(F)cc5OC)CC4)cc23)c1 [Example I-1129]
54 | 100 to 1000 | COc1ccncc1-c1cc(C2=CCCN(C(C)=O)C2)c(F)c2sc(C(=O)N(C)C)cc12 [Example I-555]
55 | < 100 | Cc1ccc(-c2cc(C3=CCCN(C(=O)CCn4ccnn4)C3)cc3cc(C(=O)N(C)C)oc23)c(O)c1 [Example I-853]
56 | < 100 | COc1cc(F)cnc1N1CCN(C(=O)c2cc3c(-c4ccc(C5(C#N)CC5)cc4)cc(C4=CCCN(C(=O)CCn5ccnn5)C4)c(F)c3[nH]2)CC1 [Example I-1140]
